From paper PMC10762078, “Role of UPF1-LIN28A interaction during early differentiation of pluripotent stem cells” (Nature Communications, 2024) come the findings set out here.

In experiment [1] the test system is HeLa, PA-1 and CHA15 cells. As to the kind of experiment: Cell-penetrating efficiency of CPP-FITC by confocal microscopy. The experiment is classed as cell-based. To be noted: PA-1, CHA15. How it is done: (§1) For CPP-conjugated peptide delivery, HeLa, 293T, and PA-1 cells were incubated with CPP-conjugated peptides or CPP-FITC at 2 μM in DMEM with 10% FBS for 12 h a day before cell harvest. hPSCs were treated with CPP-conjugated peptides at 10 μM in mTeSR Plus Medium, and the peptide-containing medium was changed every day over 10 days. The ROCK inhibitor (Tocris Bioscience, Y-27632) treated-hPSCs were dissociated into single cells using Accutase (Merck, SCR005) and differentiated into ectoderm, mesoderm, and endoderm using the STEMdiff Trilineage Differentiation Kit ([…] Technologies, 05230) following the manufacturer’s protocol. Differentiated cells treated with CPP-conjugated peptides were analysed at 0, 3, and 5 days for ectoderm and endoderm, and at 0, 3, and 4 days for mesoderm.
Immunofluorescence staining, proximity ligation assay imaging, and cell-penetrating efficiency of CPP-FITC were imaged with a confocal laser scanning microscope (Leica, TSC SP5) or immunofluorescence microscope (Leica, DM5000B). Z-stacks were captured, with sections spanning the entire cell. The LAS X Life Science program was used to obtain the maximum intensity projections and cross-sections of the confocal images.
DAPI FITC Merge DAPI FITC Merge CHA15 H9 Pro2 H9
No peptide CPP-FITC Calnexin
For 2-day treatm ent For 4-day treatm ent […]
Supplementary Fig. 5 a HeLa, PA- 1, and CHA15 wer e treated with CPP-FITC. […]

In experiment [2] the test system is CHA15 cells transcriptome / NMD targets. As to the kind of experiment: RNA-seq of CPP-peptide-treated CHA15 cells (NMD targets, SDGs; Fig. 6a, b, d; Supplementary Fig. 6a; Supplementary Data 2). The experiment is classed as cell-based, Homo sapiens. To be noted: CHA15, P2 vs P1 plot (Fig. 6d). As to the method: as §1, with “and the peptide-containing medium was changed every day over 10 days.” left out
Total RNA concentration was calculated using Quant-IT RiboGreen (Invitrogen, R11490). To assess the integrity of the total RNA, samples were run on a TapeStation RNA screentape (Agilent). Only high-quality RNA preparations with RNA integrity number greater than 7.0 were used for the RNA library construction. A library was independently prepared with 1 μg of total RNA from each sample using the Illumina TruSeq Stranded mRNA Sample Prep Kit (Illumina, 20020594). The first step in the workflow involves purifying poly‐A-containing mRNA molecules using poly‐T‐attached magnetic beads. Following purification, mRNA was fragmented into small pieces using divalent cations at elevated temperatures. The cleaved RNA fragments were copied into first-strand cDNA using SuperScript II reverse transcriptase (Invitrogen, 18064022) and random primers. This was followed by second-strand cDNA synthesis using DNA polymerase I, RNase H, and dUTP. These cDNA fragments underwent an end repair process, adding a single ‘A’ base and ligating the adapters. The products were purified and enriched via PCR to create the final cDNA library. The libraries were quantified using the KAPA Library Quantification Kits for Illumina Sequencing platforms according to the qPCR Quantification Protocol Guide (KAPA BIOSYSTEMS, KR0405) and qualified using the TapeStation D1000 ScreenTape (Agilent). Indexed libraries were then submitted to an Illumina NovaSeq (Illumina), and Macrogen Inc. performed paired-end (2 × 100 bp) sequencing.
We pre-processed the raw reads from the sequencer to remove low-quality reads and adapter sequences before analysis and aligned the processed reads to Homo sapiens (GRCh37) using HISAT v2.1.0[52]. HISAT utilises two indices for alignment (a global whole-genome index and tens of thousands of small local indexes). These two types of indices are constructed using the same Burrows-Wheeler transform (BWT)/graph FM index (GFM) as Bowtie2. The reference genome sequence of Homo sapiens (GRCh37) and the annotation data were downloaded from the NCBI database. Transcript assembly was processed using StringTie v1.3.4d[53],[54]. […] Differentially expressed genes (DEGs) were analysed by ratio of FPKM or using DESeq2 with read counts. Log2 fold-change value of the NMD targets[25],[32], three germ layer markers, miRNA targets, or SDGs was converted into cumulative frequency curve using the R function, ‘ecdf’ (version 4.0.5). Gene functional classification and Gene ontology (GO) were performed using g:Profiler[56].

The test system of experiment [3] is let-7a, let-7g, miR-16-5p and their targets in CHA15 cells. The experiment is described as follows: RT-qPCR of mature LIN28A-regulated miRNAs and CDF of let-7-5p / miR-16-5p target mRNAs (Supplementary Fig. 6f). It is filed as cell-based, human. The note with it: Fig. s6f, cumulative curves; P2/P1; Asymptotic two-sample Kolmogorov-Smirnov test, two-sided. As to the method:
cDNA was synthesised using RevertAid Reverse Transcriptase (Thermo Fisher Scientific, EP0441) with synthesised random hexamer (Macrogen) for total RNA or stem-loop primers for miRNA. For RT-qPCR reactions, the SensiFAST SYBR No-ROX kit (Meridian Bioscience) was used according to the manufacturer’s protocol. All data analysis and visualisation were conducted using R 3.6.1 [www.r-project.org] or GraphPad Prism 10. RT primers for miRNA and RT-qPCR primer sequences are provided in Supplementary Data 6.
Genes regulated by miRNA let-7-5p and miR-16-5p were determined by TargetScanHuman. Among miRNA targets sorted by cumulative weighted context++ score (CWCS)[57], the 100 top genes were selected and analysed using CDF. […]
Scatter
(bottom panel), respectively. f Levels of m ature endogenous m iRNAs in CHA15 cells, which were regulated by LIN28A, were assessed using RT -qPCR. Cum ulative f raction of log2 fold change in the expression of genes regulated by let-7-5p and m iR-16- 5p was shown as CDF graphs. T he relative level of m RNA was norm alised to that of U6 snRNA in (c, d, and f). K–S tests were used for e and f. Unpaired Student’s t-test was used for c , d, and f . * p < 0.05, ** p < 0.01, *** p < 0.001. Exact p -values were provided in Source data. Data are presented as m ean values ± SEM. All statistical test used were two- sided. T he m inim um num ber of independent biological replicate experim ents was a and e n = 2, b–d and f n = 3. T he experim ents were conducted three tim es, each iteration producing consistent results.

Experiment [4] deals with T1, His-LIN28A (Homo sapiens, UniProt Q9H9Z2).
T1 construct: purchased LS-bio LS-G637
T1 sequence (Q9H9Z2 1-209): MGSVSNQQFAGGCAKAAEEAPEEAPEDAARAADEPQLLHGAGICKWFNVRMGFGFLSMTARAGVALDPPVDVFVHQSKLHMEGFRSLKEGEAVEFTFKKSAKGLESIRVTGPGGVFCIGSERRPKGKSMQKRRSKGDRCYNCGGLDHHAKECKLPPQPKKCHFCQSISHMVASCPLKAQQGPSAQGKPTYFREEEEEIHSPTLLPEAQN
As to the kind of experiment: SPR analyte-ligand binding screening of eight peptides (P1-P8). To be noted: SPR screening at 15 μM, 3 min association, 6 min dissociation. As to the method:
For ligand immobilisation, the nitrilotriacetic acid (NTA) surface gold sensor chip (icluebio) was activated with 5 mM NiCl2 (Xantec) at a flow rate of 30 μL/min, following equalisation with 1× HBS-T buffer. His-LIN28A (LS-bio, LS-G637) was used as a ligand protein and was applied to a sensor chip at a flow rate of 10 μL/min for 40 min after dilution in 1× HEPES-buffered saline (HBS-T) buffer at a 1/20 ratio. Approximately 1000 resonance units (RU) were bonded to the sensor chip after ligand immobilisation. RU was measured using iMSPR-ProX (icluebio). An indigenous NTA sensor chip was used as a reference channel.
Analyte-ligand binding screening was performed by tethering the ligand and reference channels in the connected mode. […] After equalisation with 1× HBS-T buffer, the sensor chip was treated with each peptide for 3 min and then for 6 min with 1× HBS-T buffer for peptide dissociation.

Experiment [5] addresses T2, His-LIN28A (UniProt Q9H9Z2 1-209).
T2 chain: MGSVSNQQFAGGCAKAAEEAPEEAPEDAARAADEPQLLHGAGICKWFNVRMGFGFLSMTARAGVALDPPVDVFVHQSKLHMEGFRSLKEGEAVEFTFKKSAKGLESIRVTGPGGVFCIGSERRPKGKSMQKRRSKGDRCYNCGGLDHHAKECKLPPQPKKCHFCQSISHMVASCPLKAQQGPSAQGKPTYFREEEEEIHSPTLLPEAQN
As to the kind of experiment: SPR. A general note: In SPR one partner is held on a chip, and binding of the other changes the refractive index at the surface.

For experiment [6], the target named is T2, His-LIN28A. The experiment is described as follows: SPR.

Ends that are not written are not given here.

Turning to “CPP-FITC: CPP conjugated to FITC, used to evaluate cell-penetrating ability in cells (KKKWCRKKK; also: FITC conjugate)”, the “intracellular distribution” value in experiment [1] is listed as “distribution of CPP-FITC in the cytoplasm”.
Turning to “KKKWCRKKKMPELQKLQQLKDE [CPP-P2, CPP conjugated to P2; negative control, reference compound]”, in experiment [2], the “ACADL expression (dot plot)” value is recorded as -0.6893, the “AOC1 expression (dot plot)” value was -1.502, the “BLOC1S5-TXNDC5 expression (dot plot)” value is reported as -0.1425 and the “TRIM39-RPP21 expression (dot plot)” value was found to be 0.7164. For the same molecule, in experiment [3], the “let-7-5p targets, log2FC cumulative curve: Kolmogorov-Smirnov D” value amounted to 0.07965 and the “miR-16-5p targets, log2FC cumulative curve: Kolmogorov-Smirnov D” value was 0.2271.
On to “N-STSFDRMQSALKTFAVD-C [P4, peptide derived from the UPF1 (419–700) domain]”, for which the “binding affinity vs others” value on His-LIN28A [4] was “slightly”.
Turning to SSADEKRYRALKRTAERELLMNA [P8], the koff (commonly the first-order rate constant of dissociation) with His-LIN28A [5] was 0.0137 s⁻¹. Further, binding with His-LIN28A [6] was characterised by a dissociation constant (Kd) of 5.2 µM.
